From publication PMC9571063 (Molecules, 2022)

Columns and labels:
CDC2L5 = target: T1, CDC2L5 (Homo sapiens, UniProt Q14004); experiment: KINOMEscan; assay type: binding; conditions: read-out: Percent Control
T1 construct: purchased Eurofins DiscoverX KINOMEscan (scanMAX 468)

ROCK2 = target: T2, ROCK2 (Homo sapiens, UniProt O75116); experiment: KINOMEscan; assay type: binding; conditions: read-out: Percent Control
T2 construct: purchased Eurofins DiscoverX KINOMEscan (scanMAX 468)

TNNI3K = target: T3, TNNI3K (Homo sapiens, UniProt Q59H18); experiment: KINOMEscan; assay type: binding; conditions: read-out: Percent Control
T3 construct: purchased Eurofins DiscoverX KINOMEscan (scanMAX 468)

AMPK-alpha1 = target: T4, AMPK-alpha1 (Homo sapiens, UniProt Q13131); experiment: KINOMEscan; assay type: binding; conditions: read-out: Percent Control
T4 construct: purchased Eurofins DiscoverX KINOMEscan (scanMAX 468)

MINK = target: T5, MINK (Homo sapiens, UniProt Q8N4C8); experiment: KINOMEscan; assay type: binding; conditions: read-out: Percent Control
T5 construct: purchased Eurofins DiscoverX KINOMEscan (scanMAX 468)

MLK2 = target: T6, MLK2 (Homo sapiens, UniProt Q02779); experiment: KINOMEscan; assay type: binding; conditions: read-out: Percent Control
T6 construct: purchased Eurofins DiscoverX KINOMEscan (scanMAX 468)

KIT-autoinhibited = target: T7, KIT-autoinhibited (Homo sapiens, UniProt P10721); experiment: KINOMEscan; assay type: binding; conditions: read-out: Percent Control
T7 construct: purchased Eurofins DiscoverX KINOMEscan (scanMAX 468)

PRKX = target: T8, PRKX (Homo sapiens, UniProt P51817); experiment: KINOMEscan; assay type: binding; conditions: read-out: Percent Control
T8 construct: purchased Eurofins DiscoverX KINOMEscan (scanMAX 468)

ITK = target: T9, ITK (Homo sapiens, UniProt Q08881); experiment: KINOMEscan; assay type: binding; conditions: read-out: Percent Control
T9 construct: purchased Eurofins DiscoverX KINOMEscan (scanMAX 468)

FLT3(N841I) = target: T10, FLT3(N841I) (Homo sapiens, UniProt P36888, N841I); experiment: KINOMEscan; assay type: binding; conditions: read-out: Percent Control
T10 construct: purchased Eurofins DiscoverX KINOMEscan (scanMAX 468)

TYRO3 = target: T11, TYRO3 (Homo sapiens, UniProt Q06418); experiment: KINOMEscan; assay type: binding; conditions: read-out: Percent Control
T11 construct: purchased Eurofins DiscoverX KINOMEscan (scanMAX 468)
T11 sequence (Q06418 41-890): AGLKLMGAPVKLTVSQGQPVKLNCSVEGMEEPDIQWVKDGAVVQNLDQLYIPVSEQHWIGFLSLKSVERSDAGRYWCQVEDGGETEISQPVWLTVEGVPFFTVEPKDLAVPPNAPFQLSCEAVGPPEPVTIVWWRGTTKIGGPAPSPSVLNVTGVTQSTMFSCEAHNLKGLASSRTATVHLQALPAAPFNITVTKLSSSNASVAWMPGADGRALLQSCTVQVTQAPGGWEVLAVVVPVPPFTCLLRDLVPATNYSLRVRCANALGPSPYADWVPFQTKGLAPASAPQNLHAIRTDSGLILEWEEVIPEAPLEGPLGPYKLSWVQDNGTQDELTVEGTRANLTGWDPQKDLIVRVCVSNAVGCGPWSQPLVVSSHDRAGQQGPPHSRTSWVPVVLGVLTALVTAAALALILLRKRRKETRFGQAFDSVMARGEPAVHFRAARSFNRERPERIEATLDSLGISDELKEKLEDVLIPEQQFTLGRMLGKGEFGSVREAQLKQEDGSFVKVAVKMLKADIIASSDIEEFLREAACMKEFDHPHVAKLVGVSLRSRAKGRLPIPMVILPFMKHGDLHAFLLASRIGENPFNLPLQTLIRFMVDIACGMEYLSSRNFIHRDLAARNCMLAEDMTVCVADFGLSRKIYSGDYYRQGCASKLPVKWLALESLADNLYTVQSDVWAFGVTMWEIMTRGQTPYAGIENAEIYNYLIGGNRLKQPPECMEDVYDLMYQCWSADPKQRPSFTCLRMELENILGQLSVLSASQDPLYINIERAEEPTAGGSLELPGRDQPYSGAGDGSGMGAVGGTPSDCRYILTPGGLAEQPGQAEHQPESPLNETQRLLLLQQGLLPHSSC

MYLK = target: T12, MYLK (Homo sapiens, UniProt Q15746); experiment: KINOMEscan; assay type: binding; conditions: read-out: Percent Control
T12 construct: purchased Eurofins DiscoverX KINOMEscan (scanMAX 468)

NEK1 = target: T13, NEK1 (Homo sapiens, UniProt Q96PY6); experiment: KINOMEscan; assay type: binding; conditions: read-out: Percent Control
T13 construct: purchased Eurofins DiscoverX KINOMEscan (scanMAX 468)

[1] = target: T14, RPS6KA4(Kin.Dom.2-C-terminal) (Homo sapiens, UniProt O75676); experiment: KINOMEscan; assay type: binding; conditions: read-out: Percent Control
T14 construct: RPS6KA4(Kin.Dom.2-C-terminal); purchased Eurofins DiscoverX KINOMEscan (scanMAX 468)

CDK3 = target: T15, CDK3 (Homo sapiens, UniProt Q00526); experiment: KINOMEscan; assay type: binding; conditions: read-out: Percent Control
T15 construct: purchased Eurofins DiscoverX KINOMEscan (scanMAX 468)
T15 sequence (Q00526 whole entry): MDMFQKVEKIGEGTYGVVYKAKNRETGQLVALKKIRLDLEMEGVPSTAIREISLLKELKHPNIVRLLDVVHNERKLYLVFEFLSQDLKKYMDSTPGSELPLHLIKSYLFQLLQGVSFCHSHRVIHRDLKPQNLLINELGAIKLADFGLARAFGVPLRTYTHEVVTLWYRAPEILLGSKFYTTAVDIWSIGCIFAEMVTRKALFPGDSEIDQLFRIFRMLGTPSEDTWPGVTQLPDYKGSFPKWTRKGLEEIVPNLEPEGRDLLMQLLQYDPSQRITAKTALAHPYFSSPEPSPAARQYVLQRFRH

PYK2 = target: T16, PYK2 (Homo sapiens, UniProt Q14289); experiment: KINOMEscan; assay type: binding; conditions: read-out: Percent Control
T16 construct: purchased Eurofins DiscoverX KINOMEscan (scanMAX 468)
T16 sequence (Q14289 whole entry): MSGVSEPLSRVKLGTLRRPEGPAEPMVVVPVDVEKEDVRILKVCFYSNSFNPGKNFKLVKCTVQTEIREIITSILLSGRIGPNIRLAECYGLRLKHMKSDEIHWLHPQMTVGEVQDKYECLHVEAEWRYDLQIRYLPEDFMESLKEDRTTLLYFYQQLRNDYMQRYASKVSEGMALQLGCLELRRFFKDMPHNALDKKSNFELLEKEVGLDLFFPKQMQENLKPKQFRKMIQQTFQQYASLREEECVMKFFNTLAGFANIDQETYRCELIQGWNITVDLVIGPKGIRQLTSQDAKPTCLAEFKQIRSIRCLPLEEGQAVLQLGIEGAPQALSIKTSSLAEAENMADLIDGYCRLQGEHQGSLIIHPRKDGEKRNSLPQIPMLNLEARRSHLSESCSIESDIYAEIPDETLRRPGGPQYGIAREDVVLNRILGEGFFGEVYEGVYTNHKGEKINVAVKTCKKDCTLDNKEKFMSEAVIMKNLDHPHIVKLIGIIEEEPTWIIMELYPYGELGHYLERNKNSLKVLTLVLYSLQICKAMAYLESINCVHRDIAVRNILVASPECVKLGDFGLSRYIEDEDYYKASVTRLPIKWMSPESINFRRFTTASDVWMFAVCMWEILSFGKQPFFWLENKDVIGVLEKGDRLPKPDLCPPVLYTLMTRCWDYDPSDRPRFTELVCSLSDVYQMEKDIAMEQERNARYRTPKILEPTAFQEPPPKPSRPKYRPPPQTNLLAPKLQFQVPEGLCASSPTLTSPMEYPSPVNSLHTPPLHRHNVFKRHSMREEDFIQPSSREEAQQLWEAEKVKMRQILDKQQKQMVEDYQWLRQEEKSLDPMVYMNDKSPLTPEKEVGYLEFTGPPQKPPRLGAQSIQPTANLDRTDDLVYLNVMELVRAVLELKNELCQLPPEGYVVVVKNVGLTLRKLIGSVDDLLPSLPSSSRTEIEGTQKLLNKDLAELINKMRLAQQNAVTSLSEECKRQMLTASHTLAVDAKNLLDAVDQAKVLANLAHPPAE

BMPR1A = target: T17, BMPR1A (Homo sapiens, UniProt P36894); experiment: KINOMEscan; assay type: binding; conditions: read-out: Percent Control
T17 construct: purchased Eurofins DiscoverX KINOMEscan (scanMAX 468)

ALK(L1196M) = target: T18, ALK(L1196M) (Homo sapiens, UniProt Q9UM73, L1196M); experiment: KINOMEscan; assay type: binding; conditions: read-out: Percent Control
T18 construct: purchased Eurofins DiscoverX KINOMEscan (scanMAX 468)

CDK4-cyclinD3 = target: T19, CDK4-cyclinD3 (Homo sapiens, UniProt P11802); experiment: KINOMEscan; assay type: binding; conditions: read-out: Percent Control
T19 construct: purchased Eurofins DiscoverX KINOMEscan (scanMAX 468)

PIK3CG = target: T20, PIK3CG (Homo sapiens, UniProt P48736); experiment: KINOMEscan; assay type: binding; conditions: read-out: Percent Control
T20 construct: purchased Eurofins DiscoverX KINOMEscan (scanMAX 468)

KIT(D816H) = target: T21, KIT(D816H) (Homo sapiens, UniProt P10721, D816H); experiment: KINOMEscan; assay type: binding; conditions: read-out: Percent Control
T21 construct: purchased Eurofins DiscoverX KINOMEscan (scanMAX 468)

HCT116 = tested on: HCT116; design: method as in ref 14 (a number printed in a supplementary file, which may have a reference list of its own: not looked up in the article's list); conditions: DB18[a], footnote not given; read-out: Cytotoxic studies IC50 HCT116; cited from earlier work
TAK1 = target: T22, TAK1 (Homo sapiens, UniProt O43318); experiment: KINOMEscan; assay type: binding; conditions: read-out: Percent Control
T22 construct: purchased Eurofins DiscoverX KINOMEscan (scanMAX 468)

YANK3 = target: T23, YANK3 (Homo sapiens, UniProt Q86UX6); experiment: KINOMEscan; assay type: binding; conditions: read-out: Percent Control
T23 construct: purchased Eurofins (KINOMEscan, DiscoverX)

MAP4K5 = target: T24, MAP4K5 (Homo sapiens, UniProt Q9Y4K4); experiment: KINOMEscan; assay type: binding; conditions: read-out: Percent Control
T24 construct: purchased Eurofins DiscoverX KINOMEscan (scanMAX 468)

CSNK2A1 = target: T25, CSNK2A1 (Homo sapiens, UniProt P68400); experiment: KINOMEscan; assay type: binding; conditions: read-out: Percent Control
T25 construct: purchased Eurofins DiscoverX KINOMEscan (scanMAX 468)

FGFR3 = target: T26, FGFR3 (Homo sapiens, UniProt P22607); experiment: KINOMEscan; assay type: binding; conditions: read-out: Percent Control
T26 construct: purchased Eurofins DiscoverX KINOMEscan (scanMAX 468)

PKNB(M.tuberculosis) = target: T27, PKNB(M.tuberculosis) (Mycobacterium tuberculosis, UniProt P9WI81); experiment: KINOMEscan; assay type: binding; conditions: read-out: Percent Control
T27 construct: purchased Eurofins DiscoverX KINOMEscan (scanMAX 468)

TTK = target: T28, TTK (Homo sapiens, UniProt P33981); experiment: KINOMEscan; assay type: binding; conditions: read-out: Percent Control
T28 construct: purchased Eurofins DiscoverX KINOMEscan (scanMAX 468)

NEK2 = target: T29, NEK2 (Homo sapiens, UniProt P51955); experiment: KINOMEscan; assay type: binding; conditions: read-out: Percent Control
T29 construct: purchased Eurofins DiscoverX KINOMEscan (scanMAX 468)

[2] = target: T30, ABL1(H396P)-phosphorylated (Homo sapiens, UniProt P00519, H396P); experiment: KINOMEscan; assay type: binding; conditions: read-out: Percent Control
T30 construct: purchased Eurofins DiscoverX KINOMEscan (scanMAX 468)

SNARK = target: T31, SNARK (Homo sapiens, UniProt Q9H093); experiment: KINOMEscan; assay type: binding; conditions: read-out: Percent Control
T31 construct: purchased Eurofins DiscoverX KINOMEscan (scanMAX 468)

[3] = target: T32, EGFR(L747-E749del, A750P) (Homo sapiens, UniProt P00533, A750P/DEL747-749); experiment: KINOMEscan; assay type: binding; conditions: read-out: Percent Control
T32 construct: purchased Eurofins DiscoverX KINOMEscan (scanMAX 468)
T32 sequence (P00533 with tags, fused parts or gaps DEL747-749/A750P limits assumed): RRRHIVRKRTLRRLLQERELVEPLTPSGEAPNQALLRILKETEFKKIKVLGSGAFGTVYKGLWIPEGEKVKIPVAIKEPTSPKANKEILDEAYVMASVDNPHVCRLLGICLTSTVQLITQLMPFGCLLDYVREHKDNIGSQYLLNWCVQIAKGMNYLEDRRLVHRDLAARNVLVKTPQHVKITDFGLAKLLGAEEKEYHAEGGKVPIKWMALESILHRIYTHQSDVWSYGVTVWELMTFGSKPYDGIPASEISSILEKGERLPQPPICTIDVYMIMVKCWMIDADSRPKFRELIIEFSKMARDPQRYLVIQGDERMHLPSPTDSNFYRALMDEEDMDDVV

PAK6 = target: T33, PAK6 (Homo sapiens, UniProt Q9NQU5); experiment: KINOMEscan; assay type: binding; conditions: read-out: Percent Control
T33 construct: purchased Eurofins DiscoverX KINOMEscan (scanMAX 468)

CSF1R = target: T34, CSF1R (Homo sapiens, UniProt P07333); experiment: KINOMEscan; assay type: binding; conditions: read-out: Percent Control
T34 construct: purchased Eurofins DiscoverX KINOMEscan (scanMAX 468)

CSNK1G1 = target: T35, CSNK1G1 (Homo sapiens, UniProt Q9HCP0); experiment: KINOMEscan; assay type: binding; conditions: read-out: Percent Control
T35 construct: purchased Eurofins DiscoverX KINOMEscan (scanMAX 468)
T35 sequence (Q9HCP0 whole entry): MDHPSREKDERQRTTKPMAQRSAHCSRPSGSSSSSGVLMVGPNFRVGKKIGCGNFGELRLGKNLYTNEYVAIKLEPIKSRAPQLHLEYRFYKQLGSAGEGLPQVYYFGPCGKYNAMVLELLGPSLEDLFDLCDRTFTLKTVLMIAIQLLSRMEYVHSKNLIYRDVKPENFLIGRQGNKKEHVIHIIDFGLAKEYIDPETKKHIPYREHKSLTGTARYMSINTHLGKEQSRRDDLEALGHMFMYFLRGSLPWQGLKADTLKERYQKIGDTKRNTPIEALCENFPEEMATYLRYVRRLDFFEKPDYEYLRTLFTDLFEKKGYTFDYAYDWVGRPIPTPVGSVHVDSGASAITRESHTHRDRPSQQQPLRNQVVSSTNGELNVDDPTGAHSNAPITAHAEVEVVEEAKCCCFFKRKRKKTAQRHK

HIPK1 = target: T36, HIPK1 (Homo sapiens, UniProt Q86Z02); experiment: KINOMEscan; assay type: binding; conditions: read-out: Percent Control
T36 construct: purchased Eurofins DiscoverX KINOMEscan (scanMAX 468)
T36 sequence (Q86Z02 whole entry): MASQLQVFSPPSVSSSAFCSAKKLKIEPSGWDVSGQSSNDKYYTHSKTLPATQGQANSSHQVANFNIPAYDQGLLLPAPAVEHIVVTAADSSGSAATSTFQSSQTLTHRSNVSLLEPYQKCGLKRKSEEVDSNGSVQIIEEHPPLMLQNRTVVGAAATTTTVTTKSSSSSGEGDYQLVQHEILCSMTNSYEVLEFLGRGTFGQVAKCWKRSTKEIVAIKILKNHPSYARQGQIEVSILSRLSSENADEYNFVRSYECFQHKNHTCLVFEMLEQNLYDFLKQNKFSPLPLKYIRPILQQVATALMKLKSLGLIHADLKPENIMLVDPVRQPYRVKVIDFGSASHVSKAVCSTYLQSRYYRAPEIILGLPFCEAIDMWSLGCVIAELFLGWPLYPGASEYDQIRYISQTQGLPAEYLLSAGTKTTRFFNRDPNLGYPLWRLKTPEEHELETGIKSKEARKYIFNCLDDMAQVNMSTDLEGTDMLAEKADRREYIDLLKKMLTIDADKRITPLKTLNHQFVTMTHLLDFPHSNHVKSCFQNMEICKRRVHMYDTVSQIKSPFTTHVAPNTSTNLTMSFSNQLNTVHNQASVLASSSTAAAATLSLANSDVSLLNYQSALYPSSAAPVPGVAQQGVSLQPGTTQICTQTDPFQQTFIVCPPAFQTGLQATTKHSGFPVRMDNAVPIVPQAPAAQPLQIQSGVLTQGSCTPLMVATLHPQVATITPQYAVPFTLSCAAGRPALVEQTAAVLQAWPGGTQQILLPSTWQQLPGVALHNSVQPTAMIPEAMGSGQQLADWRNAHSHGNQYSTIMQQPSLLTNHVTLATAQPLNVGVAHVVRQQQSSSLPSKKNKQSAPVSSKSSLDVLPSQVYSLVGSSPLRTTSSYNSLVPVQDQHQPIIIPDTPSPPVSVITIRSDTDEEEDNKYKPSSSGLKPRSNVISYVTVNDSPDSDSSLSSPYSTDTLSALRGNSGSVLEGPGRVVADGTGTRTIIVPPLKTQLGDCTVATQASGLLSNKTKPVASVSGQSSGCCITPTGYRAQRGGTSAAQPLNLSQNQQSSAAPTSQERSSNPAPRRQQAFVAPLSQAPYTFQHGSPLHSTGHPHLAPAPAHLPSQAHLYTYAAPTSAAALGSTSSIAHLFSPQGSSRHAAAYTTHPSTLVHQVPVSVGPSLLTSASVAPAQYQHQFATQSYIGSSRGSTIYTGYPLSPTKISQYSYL

[4] = target: T37, EGFR(L747-S752del, P753S) (Homo sapiens, UniProt P00533, DEL747-752/P753S); experiment: KINOMEscan; assay type: binding; conditions: read-out: Percent Control
T37 construct: purchased Eurofins DiscoverX KINOMEscan (scanMAX 468)
T37 sequence (P00533 with tags, fused parts or gaps DEL747-752/P753S limits assumed): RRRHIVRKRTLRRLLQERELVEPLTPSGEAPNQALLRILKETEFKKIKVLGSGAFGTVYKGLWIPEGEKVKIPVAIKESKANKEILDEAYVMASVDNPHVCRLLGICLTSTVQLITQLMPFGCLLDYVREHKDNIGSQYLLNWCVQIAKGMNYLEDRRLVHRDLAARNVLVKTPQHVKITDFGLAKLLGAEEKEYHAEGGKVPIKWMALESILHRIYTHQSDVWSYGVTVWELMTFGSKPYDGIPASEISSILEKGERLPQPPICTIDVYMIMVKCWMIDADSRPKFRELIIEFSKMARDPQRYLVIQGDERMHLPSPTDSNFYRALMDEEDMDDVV

EGFR(T790M) = target: T38, EGFR(T790M) (Homo sapiens, UniProt P00533, T790M); experiment: KINOMEscan; assay type: binding; conditions: read-out: Percent Control
T38 construct: purchased Eurofins DiscoverX KINOMEscan (scanMAX 468)

[5] = target: T39, ABL1(T315I)-phosphorylated (Homo sapiens, UniProt P00519, T315I); experiment: KINOMEscan; assay type: binding; conditions: read-out: Percent Control
T39 construct: purchased Eurofins DiscoverX KINOMEscan (scanMAX 468)

HCK = target: T40, HCK (Homo sapiens, UniProt P08631); experiment: KINOMEscan; assay type: binding; conditions: read-out: Percent Control
T40 construct: purchased Eurofins DiscoverX KINOMEscan (scanMAX 468)
T40 sequence (P08631 whole entry): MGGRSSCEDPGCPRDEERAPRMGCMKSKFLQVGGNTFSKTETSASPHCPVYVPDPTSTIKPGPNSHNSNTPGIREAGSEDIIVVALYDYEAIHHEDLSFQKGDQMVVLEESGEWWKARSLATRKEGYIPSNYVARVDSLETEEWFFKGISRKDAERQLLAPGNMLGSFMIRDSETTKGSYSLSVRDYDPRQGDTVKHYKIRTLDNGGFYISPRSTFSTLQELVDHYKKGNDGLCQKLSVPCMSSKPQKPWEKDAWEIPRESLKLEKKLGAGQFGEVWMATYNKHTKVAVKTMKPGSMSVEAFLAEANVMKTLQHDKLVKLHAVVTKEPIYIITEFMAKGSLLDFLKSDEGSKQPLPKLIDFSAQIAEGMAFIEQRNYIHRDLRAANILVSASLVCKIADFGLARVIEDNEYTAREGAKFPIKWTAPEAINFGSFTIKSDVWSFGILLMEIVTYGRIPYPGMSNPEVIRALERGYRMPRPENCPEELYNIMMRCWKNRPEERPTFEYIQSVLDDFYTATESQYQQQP

Cc1ccc(-n2cc(COc3cccc4cnc(Nc5cccc(Cl)c5)nc34)nn2)c([N+](=O)[O-])c1 [DB18]
remaining binding at 1 µM (CDC2L5): 100%
remaining binding at 1 µM (ROCK2): 100%
remaining binding at 1 µM (TNNI3K): 92%
remaining binding at 1 µM (AMPK-alpha1): 94%
remaining binding at 1 µM (MINK): 95%
remaining binding at 1 µM (MLK2): 100%
remaining binding at 1 µM (KIT-autoinhibited): 97%
remaining binding at 1 µM (PRKX): 97%
remaining binding at 1 µM (ITK): 100%
remaining binding at 1 µM (FLT3(N841I)): 77%
remaining binding at 1 µM (TYRO3): 100%
remaining binding at 1 µM (MYLK): 92%
remaining binding at 1 µM (NEK1): 100%
remaining binding at 1 µM [1]: 100%
remaining binding at 1 µM (CDK3): 100%
remaining binding at 1 µM (PYK2): 100%
remaining binding at 1 µM (BMPR1A): 68%
remaining binding at 1 µM (ALK(L1196M)): 98%
remaining binding at 1 µM (CDK4-cyclinD3): 100%
remaining binding at 1 µM (PIK3CG): 62%
remaining binding at 1 µM (KIT(D816H)): 100%
IC50 (HCT116): > 25 µM
remaining binding at 1 µM (TAK1): 100%
remaining binding at 1 µM (YANK3): 100%
remaining binding at 1 µM (MAP4K5): 100%
remaining binding at 1 µM (CSNK2A1): 75%
remaining binding at 1 µM (FGFR3): 100%
remaining binding at 1 µM (PKNB(M.tuberculosis)): 97%
remaining binding at 1 µM (TTK): 86%
remaining binding at 1 µM (NEK2): 100%
remaining binding at 1 µM [2]: 98%
remaining binding at 1 µM (SNARK): 100%
remaining binding at 1 µM [3]: 93%
remaining binding at 1 µM (PAK6): 100%
remaining binding at 1 µM (CSF1R): 100%
remaining binding at 1 µM (CSNK1G1): 100%
remaining binding at 1 µM (HIPK1): 19%
remaining binding at 1 µM [4]: 83%
remaining binding at 1 µM (EGFR(T790M)): 100%
remaining binding at 1 µM [5]: 100%
remaining binding at 1 µM (HCK): 100%
